Measured values from US8921397B2, “Benzofurane-piperidine compounds” (Hoffmann-La Roche Inc., priority 2011, dated 2014).

Key:
human 5-HT2A receptor = human 5-HT2A receptor (Homo sapiens (Human), UniProt P28223); test: Radioligand binding ([3H]-ketanserin) to human 5-HT2A receptor, HEK293 EBNA membranes; settings: HEK293 EBNA cells expressing human 5-HT2A receptor
Description: The ability of the compounds to bind to the 5-HT2A, D3 and D2 receptors was determined using radioligand binding to cloned receptors selectively expressed in HEK-293 EBNA cells.
(§1) HEK293 EBNA cells were transiently transfected with expression plasmids encoding for the human D2 or D3 or for the human 5-HT2A receptor, respectively. The cells were harvested 48 h post-transfection, washed three times with cold PBS and stored at −80° C. prior to use. The pellet was suspended in cold 50 mM Tris-HCl buffer containing 10 mM EDTA (pH 7.4) and was homogenized with a Polytron (Kinematica AG, Basel, Switzerland) for 20-30 sec at 12.000 rpm. After centrifugation at 48.000×g for 30 min at 4° C., the pellet was resuspended in cold 10 mM Tris-HCl buffer containing 0.1 mM EDTA (pH 7.4), homogenized, and centrifuged as above. This pellet was further resuspended in a smaller volume of ice cold 10 mM Tris-HCl buffer containing 0.1 mM EDTA (pH 7.4) and homogenized with a Polytron for 20-30 sec at 12.000 rpm. The protein content of this homogenate was determined with the Bio-Rad (Bradford) Protein Assay (Biorad Laboratories GmbH, München, Germany) according to the instructions of the manufacturer using gamma globulin as the standard. This homogenate was stored at −80° C. in aliquots and thawed immediately prior to use.
(§2) Aliquots of membrane preparations were thawed at RT, resuspended in assay buffer (D2, D3: 50 mM Tris-HCl, 120 mM NaCl, 5 mM MgCl2, 1 mM EDTA, 5 mM KCl, 1.5 mM CaCl2, pH=7.4; 5-HT2A: 50 mM Tris-HCl, 10 mM MgCl2, 1 mM EGTA, pH=7.4), homogenized with a Polytron for 20-30 sec at 12.000 rpm and adjusted to a final concentration of approximately 7.5 μg protein/well (D2, D3) and 15 μg protein/well (5-HT2A), respectively.
(§3) The binding affinity (Ki) of the compounds was determined using radioligand binding.
(§4) Membranes were incubated in a total volume of 200 μl with a fixed concentration of radioligand (final concentration approximately 0.7 nM [^3H]-spiperone for D2, 0.5 nM [^3 H]-spiperone for D3, and 1.1 nM [^3H]-ketanserin for 5-HT2A) and ten concentrations of test compound in ranging between 10 μM-0.1 nM for 1 h at RT. At the end of the incubation, the reaction mixtures were filtered on to unifilter 96-well white microplates with bonded GF/C filters (Packard BioScience, Zürich, Switzerland; preincubated for 1 h in 0.1% polyethylenimine (PEI) in assay buffer) with a Filtermate 196 harvester (Packard BioScience) and washed 3 times with cold assay buffer. The nonspecific binding was determined with equally composed reaction mixtures in the presence of 10 μM unlabelled spiperone. Per well 45 μl of Microscint 40 (Perkin Elmer, Schwerzenbach, Switzerland) was added, plates for sealed, shaken for 20 min and counted for 3 min on a Topcount Microplate Scintillation Counter (Canberra Packard SA, Zürich, Switzerland) with quenching correction.
(§5) The CPM value for each duplicate of a concentration of competing compound was averaged (y1), then the % specific binding was calculated according to the equation (((y1−non-specific)/(total binding−non-specific))×100). Graphs were plotted with the % specific binding using XLfit, a curve-fitting program that iteratively plots the data using Levenberg-Marquardt algorithm. The single site competition analysis equation used was y=A+((B−A)/(1+((x/C)D))), where y is the % specific binding, A is the minimum y, B is the maximum y, C is the IC50, x is the log 10 of the concentration of the competing compound and D is the slope of the curve (the Hill Coefficient). From these curves the IC50 (inhibition concentration at which 50% specific binding of the radioligand was displaced) and Hill coefficient were determined. The affinity constant (Ki) was calculated using the Cheng-Prusoff equation Ki=(IC50/1+([L]/Kd), where [L] is the concentration of radioligand and Kd is the dissociation constant of the radioligand at the receptor as determined by the saturation isotherm.

human D3 receptor = human D3 receptor (Homo sapiens (Human), UniProt P35462); test: Radioligand binding ([3H]-spiperone) to human D3 receptor, HEK293 EBNA membranes; settings: HEK293 EBNA cells expressing human D3 receptor
Description: as §1, §2, §3, §4, §5

human D2 receptor = human D2 receptor (Homo sapiens (Human), UniProt P14416); test: Radioligand binding ([3H]-spiperone) to human D2 receptor, HEK293 EBNA membranes; settings: HEK293 EBNA cells expressing human D2 receptor
Description: as §1, §2, §3, §4, §5

human 5-HT2A receptor, sequence (P28223 whole entry): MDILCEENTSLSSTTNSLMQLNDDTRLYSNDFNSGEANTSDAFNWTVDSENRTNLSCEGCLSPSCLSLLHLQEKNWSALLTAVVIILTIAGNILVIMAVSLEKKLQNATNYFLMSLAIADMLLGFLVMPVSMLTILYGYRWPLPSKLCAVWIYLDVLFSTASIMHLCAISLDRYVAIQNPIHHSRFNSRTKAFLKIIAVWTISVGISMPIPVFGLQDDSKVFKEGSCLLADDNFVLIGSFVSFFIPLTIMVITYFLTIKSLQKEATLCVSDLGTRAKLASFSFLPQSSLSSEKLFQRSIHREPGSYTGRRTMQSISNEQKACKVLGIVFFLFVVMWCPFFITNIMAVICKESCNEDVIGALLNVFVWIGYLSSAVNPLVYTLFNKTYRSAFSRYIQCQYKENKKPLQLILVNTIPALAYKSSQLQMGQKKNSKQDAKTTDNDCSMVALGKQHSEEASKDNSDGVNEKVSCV
human D2 receptor, sequence (P14416 whole entry): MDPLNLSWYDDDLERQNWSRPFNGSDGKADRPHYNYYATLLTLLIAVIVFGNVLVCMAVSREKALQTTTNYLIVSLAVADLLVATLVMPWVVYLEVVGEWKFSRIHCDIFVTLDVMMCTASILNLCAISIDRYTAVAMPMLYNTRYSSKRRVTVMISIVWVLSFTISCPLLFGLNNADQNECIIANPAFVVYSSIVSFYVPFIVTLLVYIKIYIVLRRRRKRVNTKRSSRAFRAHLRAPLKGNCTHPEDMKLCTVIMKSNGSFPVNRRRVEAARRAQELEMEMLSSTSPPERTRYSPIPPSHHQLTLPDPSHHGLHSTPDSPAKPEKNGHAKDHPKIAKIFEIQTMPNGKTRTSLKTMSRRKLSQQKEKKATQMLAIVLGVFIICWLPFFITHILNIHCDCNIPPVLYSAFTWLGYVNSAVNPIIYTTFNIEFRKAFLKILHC
human D3 receptor, sequence (P35462 whole entry): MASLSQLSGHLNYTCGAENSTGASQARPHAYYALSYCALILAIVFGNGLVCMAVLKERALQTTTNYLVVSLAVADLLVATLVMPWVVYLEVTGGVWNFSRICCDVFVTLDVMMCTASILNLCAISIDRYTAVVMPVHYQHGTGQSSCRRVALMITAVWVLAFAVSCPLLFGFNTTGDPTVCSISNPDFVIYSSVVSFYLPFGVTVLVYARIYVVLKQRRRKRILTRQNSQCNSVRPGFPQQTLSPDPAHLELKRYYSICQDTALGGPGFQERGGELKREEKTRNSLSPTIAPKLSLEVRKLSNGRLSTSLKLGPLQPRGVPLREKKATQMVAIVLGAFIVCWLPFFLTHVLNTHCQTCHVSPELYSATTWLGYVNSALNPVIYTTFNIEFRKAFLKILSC

| Structure (SMILES) | Ki (human 5-HT2A receptor) [nM] | melting point [°C] | Ki (human D3 receptor) [nM] | Ki (human D2 receptor) [nM] |
| --- | --- | --- | --- | --- |
| O=C(N[C@H]1CC[C@H](CCN2CCC(c3coc4ccccc34)CC2)CC1)C12CC3CC(CC(C3)C1)C2 [Example 78, Adamantane-1-carboxylic acid trans-{4-[2-(4-benzofuran-3-yl-piperidin-1-yl)-ethyl]-cyclohexyl}-amide] | 17.4 | 200 | 12.7 | 129 |
| COC(CC(=O)N[C@H]1CC[C@H](CCN2CCC(c3coc4ccccc34)CC2)CC1)OC [Example 52, trans-N-{4-[2-(4-Benzofuran-3-yl-piperidin-1-yl)-ethyl]-cyclohexyl}-3,3-dimethoxy-propionamide] | 5.94 | 148 | 1.46 | 48.9 |
| Cc1ccc(C(=O)N[C@H]2CC[C@H](CCN3CCC(c4coc5ccccc45)CC3)CC2)cn1 [Example 69, trans-N-{4-[2-(4-Benzofuran-3-yl-piperidin-1-yl)-ethyl]-cyclohexyl}-6-methyl-nicotinamide] | 5.11 | 203 | 2.53 | 28.1 |
| CC(C)(C)c1ccc(C(=O)N[C@H]2CC[C@H](CCN3CCC(c4coc5ccccc45)CC3)CC2)cc1 [Example 60, trans-N-{4-[2-(4-Benzofuran-3-yl-piperidin-1-yl)-ethyl]-cyclohexyl}-4-tert-butyl-benzamide] | 3.77 | 180 | 10.1 | 1110 |
| COCC(=O)N[C@H]1CC[C@H](CCN2CCC(c3coc4ccccc34)CC2)CC1 [Example 6, trans-N-{4-[2-(4-Benzofuran-3-yl-piperidin-1-yl)-ethyl]-cyclohexyl}-2-methoxy-acetamide] | 3.36 | 115 | 3.52 | 80.1 |
| O=C(N[C@H]1CC[C@H](CCN2CCC(c3coc4ccccc34)CC2)CC1)c1ccnc2ccccc12 [Example 19, Quinoline-4-carboxylic acid trans-{4-[2-(4-benzofuran-3-yl-piperidin-1-yl)-ethyl]-cyclohexyl}-amide] | 8.7 | 169 | 3.36 | 96.7 |
| O=C(N[C@H]1CC[C@H](CCN2CCC(c3coc4ccccc34)CC2)CC1)C1CCC(C(F)(F)F)CC1 (stereo partly drawn) [Example 79, 4-Trifluoromethyl-cyclohexanecarboxylic acid trans-{4-[2-(4-benzofuran-3-yl-piperidin-1-yl)-ethyl]-cyclohexyl}-amide] | 11.2 | 190 | 6.8 | 73 |
| CC(C)=CC(=O)N[C@H]1CC[C@H](CCN2CCC(c3coc4ccccc34)CC2)CC1 [Example 53, 3-Methyl-but-2-enoic acid trans-{4-[2-(4-benzofuran-3-yl-piperidin-1-yl)-ethyl]-cyclohexyl}-amide] | 9.68 | 147 | 2.83 | 18 |
| CC(C)(C)Oc1ccc(C(=O)N[C@H]2CC[C@H](CCN3CCC(c4coc5ccccc45)CC3)CC2)cc1 [Example 71, trans-N-{4-[2-(4-Benzofuran-3-yl-piperidin-1-yl)-ethyl]-cyclohexyl}-4-tert-butoxy-benzamide] | 5.56 | 186 | 2.14 | 168 |
| O=C(N[C@H]1CC[C@H](CCN2CCC(c3coc4ccccc34)CC2)CC1)c1ccc(-n2cccc2)cc1 [Example 68, trans-N-{4-[2-(4-Benzofuran-3-yl-piperidin-1-yl)-ethyl]-cyclohexyl}-4-pyrrol-1-yl-benzamide] | 10.2 | 212 | 4.58 | 34.3 |
| Cc1ccc(S(=O)(=O)N[C@H]2CC[C@H](CCN3CCC(c4coc5ccccc45)CC3)CC2)cc1 [Example 38, trans-N-{4-[2-(4-Benzofuran-3-yl-piperidin-1-yl)-ethyl]-cyclohexyl}-4-methyl-benzenesulfonamide] | 41.5 | 149 | 6.24 | 58.6 |
| O=C(C[C@@H](O)C(F)(F)F)N[C@H]1CC[C@H](CCN2CCC(c3coc4ccccc34)CC2)CC1 [Example 35, trans-N-{4-[2-(4-Benzofuran-3-yl-piperidin-1-yl)-ethyl]-cyclohexyl}-(R)-4,4,4-trifluoro-3-hydroxy-butyramide] | 9.69 | 166 | 2.29 | 50.4 |
| O=C(N[C@H]1CC[C@H](CCN2CCC(c3coc4ccccc34)CC2)CC1)c1ccc(C2CC2)cc1 [Example 84, trans-N-{4-[2-(4-Benzofuran-3-yl-piperidin-1-yl)-ethyl]-cyclohexyl}-4-cyclopropyl-benzamide] | 2.15 | 199 | 14.1 | 355 |
| CC(=O)N[C@H]1CC[C@H](CCN2CCC(c3coc4ccccc34)CC2)CC1 [Example 1, trans-N-{4-[2-(4-Benzofuran-3-yl-piperidin-1-yl)-ethyl]-cyclohexyl}-acetamide] | 5.08 | 162 | 1.08 | 50.4 |
| CC[C@@H](O)CC(=O)N[C@H]1CC[C@H](CCN2CCC(c3coc4ccccc34)CC2)CC1 [Example 46, (R)-3-Hydroxy-pentanoic acid trans-{4-[2-(4-benzofuran-3-yl-piperidin-1-yl)-ethyl]-cyclohexyl}-amide] | 8.7 | 142 | 2.49 | 55.4 |
| CO[C@H]1CC[C@H](CC(=O)N[C@H]2CC[C@H](CCN3CCC(c4coc5ccccc45)CC3)CC2)CC1 [Example 72, trans-N-{4-[2-(4-Benzofuran-3-yl-piperidin-1-yl)-ethyl]-cyclohexyl}-2-trans-(4-methoxy-cyclohexyl)-acetamide] | 8.14 | 179 | 3.09 | 67.4 |
| O=C(CC1CC1)N[C@H]1CC[C@H](CCN2CCC(c3coc4ccccc34)CC2)CC1 [Example 25, trans-N-{4-[2-(4-Benzofuran-3-yl-piperidin-1-yl)-ethyl]-cyclohexyl}-2-cyclopropyl-acetamide] | 5.16 | 165 | 2.24 | 33.7 |
| CN(C)S(=O)(=O)N[C@H]1CC[C@H](CCN2CCC(c3coc4ccccc34)CC2)CC1 [Example 43, N′-(trans-4-{2-[4-(benzofuran-3-yl)-piperidin-1-yl]-ethyl}-cyclohexyl)-N,N-dimethylsulfamide] | 4.41 | 229 | 3.02 | 47 |
| O=C(CO)N[C@H]1CC[C@H](CCN2CCC(c3coc4ccccc34)CC2)CC1 [Example 11, trans-N-{4-[2-(4-Benzofuran-3-yl-piperidin-1-yl)-ethyl]-cyclohexyl}-2-hydroxy-acetamide] | 4.92 | 161 | 1.47 | 46.5 |
| CCCCC(=O)N[C@H]1CC[C@H](CCN2CCC(c3coc4ccccc34)CC2)CC1 [Example 57, Pentanoic acid trans-{4-[2-(4-benzofuran-3-yl-piperidin-1-yl)-ethyl]-cyclohexyl}-amide] | 13 | 167 | 2.21 | 65.7 |
